Measured values taken from patent US20110154529A1, “INDUCED CHROMOSOME DOUBLING IN PLANTS” (DOW AGROSCIENCES LLC, priority 2009, published 2011).
Like-named read-outs stand apart in the source and are kept apart here.

Tests used:
[1] = system: rat; details: cited from earlier work
[2] = system: haploid germinated maize seedlings
Text: An exemplary cycloalkene, 1,2,3-Trimethoxy-4-((1S,6R)-6-nitro-cyclohex-3-enyl)-benzene, designated as compound 1 was used to determine double haploid efficiency, doubling rate by a coleoptile tip cutting, seedling soaking method. […] Data provided in Tables 1, 2 and 3 were generated using haploid seeds obtained through cross pollination of a maize line of interest with an inducer maize line.
The resulting maize seeds were sorted based on marker gene color.
Coleoptile tips in maize seedlings were cut and the seedlings were soaked in various chromosome doubling agents as shown in Table 1. Haploid maize seeds were germinated and the coleoptile tips were excised (1-2 mm). Seedlings that survived were transplanted and grown until tassels and silk formed. Plants that produced tassels and silk were self-pollinated. Seeds produced form the self-pollination were visually assessed for the marker to identify them as double haploid (dihaploid).

[3] = system: haploid maize seedlings; assay: Chromosome doubling by seedling soaking, plants transplanted into the field; type: in vivo
Method: The procedure listed in example 1 was utilized to treat maize seedlings that were subsequently transplanted into the field. Seedlings that survived the transplanting were grown to maturity. Plants that produced tassels and silk were self-pollinated. […] For the cycloalkene treatment, 25 μM and 100 μM concentrations of compound 1 was used.

[4] = system: rabbit; assay: Eye irritation; type: in vivo; details: dose of about 100 mg/animal
[5] = Acute mammalian toxicity LD50 (rat); details: in vivo
[6] = system: rats; assay: Dermal toxicity on rats; type: in vivo, rat; details: rats at 200 mg/kg
[7] = system: germinated haploid maize seedlings in soil; assay: Chromosome doubling by foliar spray treatment at V1-V3 stage; type: in vivo
Method: Haploid maize seeds were planted in Sun Gro MetroMix® 306 planting mixture, which typically has a pH of 6.0 to 6.8 and an organic matter content of about 30 percent, in 72-well, plastic propagation flats (Dillen Products; Middlefield Ohio). When required to ensure good germination and healthy plants, a fungicide treatment and/or other chemical or physical treatment was applied. The plants were grown in a greenhouse with an approximate 15 hour photoperiod which was maintained at about 23-29° C. during the day and 22-28° C. during the night until they reached the V1-V3 growth stage. Nutrients and water were added on a regular basis and supplemental lighting was provided with overhead metal halide 1000-Watt lamps as necessary.
A weighed amount of compound 1, determined by the rate to be tested, was dissolved in 1.2 mL of dimethyl sulfoxide (DMSO) to obtain concentrated stock solutions. […] The concentrated stock solutions obtained were diluted with 10.8 mL of an aqueous mixture containing 1.25% v/v (volume/volume) Agri-dex Crop Oil Concentrate. Compound requirements are based upon a 12 mL application volume at a rate of 187 L/ha. Formulated compounds were applied to the plant material with an overhead Mandel track sprayer equipped with a 8002E nozzle calibrated to deliver 187 L/ha over an application area of 0.503 square meters at a spray height of 18 inches (43 cm) above the average plant canopy height. Control plants were sprayed in the same manner with the solvent blank.
The treated plants and control plants were placed in a greenhouse as described above and watered by sub-irrigation to prevent wash-off of the test compounds. Approximately 14 days after treatment, the treated plants were transplanted to individual pots containing Sun Gro MetroMix® 306. Plants that produced tassels and silk were then self-pollinated to obtain dihaploid seed.
Table 3 illustrates the results of doubling rate after spray treatment with the chemicals of interest. […] The spray treated plant tassels and silks were synchronized well and the plants shed more pollen.

[8] = seedling soak, rate cell empty in table, colchicine at 0.06% w/v
[9] = seedling soak, rate 5 μM, TP = transplanted
[10] = seedling soak, rate 25 μM, TP = transplanted
[11] = seedling soak, rate 125 μM, TP = transplanted

COc1cc2c(c(OC)c1OC)-c1ccc(OC)c(=O)cc1[C@@H](NC(C)=O)CC2 [Colchicine, colchicine]
oral LD50 (rat) [1]: 5.89 mg/kg
mortality rate ([2]; seedling soak, colchicine treatment at 0.06% w/v): 41.5%
% DR (doubling rate: No. plants with pollen and silk/No. of plants left * 100) [2, 8]: 53.3%
No. plants alive [2, 8]: 38
No. plants dead [2, 8]: 27
No. plants dead after TP [2, 8]: 0
No. plants with pollen & silks [2, 8]: 16
% haploid maize plants pollinated (doubling rate) ([3]; 0.06% colchicine): 55.68%
plants that had doubled haploid ears ([3]; 0.06% w/v colchicine, of about 49 haploid plants pollinated): about 38

COc1ccc([C@@H]2CC=CC[C@H]2[N+](=O)[O-])c(OC)c1OC [Compound 1, 1,2,3-Trimethoxy-4-((1S,6R)-6-nitro-cyclohex-3-enyl)-benzene]
Eye irritation: time to resolution of corneal and iridal effects [4]: ≤ 48 h
Eye irritation: animals with corneal and iridal effects ([4]; at 24 hours): 1 of 3 animals showed corneal and iridal effects
No. plants alive ([2]; maize, in vivo, 5 μM): 56
No. plants dead ([2]; maize, in vivo, 5 μM): 10
No. plants dead after TP ([2]; maize, in vivo, 5 μM): 2
No. plants alive ([2]; maize, in vivo, 25 μM): 46
No. plants dead ([2]; maize, in vivo, 25 μM): 20
No. plants dead after TP ([2]; maize, in vivo, 25 μM): 2
No. plants alive ([2]; maize, in vivo, 125 μM): 29
No. plants dead ([2]; maize, in vivo, 125 μM): 34
No. plants dead after TP ([2]; maize, in vivo, 125 μM): 2
mortality rate ([2]; seedling soak, 5 μM (10/66*100)): 15.1%
mortality rate ([2]; seedling soak, 25 μM): 30.3%
% DR (doubling rate: No. plants with pollen and silk/No. of plants left * 100) ([2]; seedling soak, rate 5 μM): 53.3%
No. plants with pollen & silks ([2]; seedling soak, rate 5 μM): 24
% DR (doubling rate: No. plants with pollen and silk/No. of plants left * 100) ([2]; seedling soak, rate 5 μM, listed as compound 1): about 53%
% DR (doubling rate: No. plants with pollen and silk/No. of plants left * 100) ([2]; seedling soak, rate 25 μM): 62.5%
No. plants with pollen & silks ([2]; seedling soak, rate 25 μM): 20
% DR (doubling rate: No. plants with pollen and silk/No. of plants left * 100) ([2]; seedling soak, rate 125 μM): 76.5%
No. plants with pollen & silks ([2]; seedling soak, rate 125 μM): 13
LD50 [5]: ≥ 500 mg/kg
% DH pollination success ([3]; 25 μM): 90%
% haploid maize plants pollinated (doubling rate) ([3]; 25 μM): 67.79%
plants that had doubled haploid ears ([3]; 25 μM, out of 40 pollinated maize haploid plants): 36
% DH pollination success ([3]; 100 μM): 62.5%
% haploid maize plants pollinated (doubling rate) ([3]; 100 μM): 51.06%
plants that had doubled haploid ears ([3]; 100 μM, out of 24 pollinated haploid maize plants): 15
dermal toxicity [6]: No dermal toxicity was observed
# plants dead after treatment ([7]; maize, in vivo): 0
# plants w/ pollen and silk ([7]; spray, rate 70 g ai/ha): 6
% DR (doubling rate) ([7]; spray, rate 70 g ai/ha): 31.2%
# plants w/ pollen and silk ([7]; spray, rate 280 g ai/ha): 12
% DR (doubling rate) ([7]; spray, rate 280 g ai/ha): 46.2%

C#CC(C)(C)NC(=O)c1cc(Cl)cc(Cl)c1 [Pronamide, pronamide]
% DR (doubling rate: No. plants with pollen and silk/No. of plants left * 100) ([2]; seedling soak, rate 5 μM): 44.5%
No. plants alive ([2]; seedling soak, rate 5 μM): 41
No. plants dead ([2]; seedling soak, rate 5 μM): 23
No. plants with pollen & silks ([2]; seedling soak, rate 5 μM): 12
No. plants dead after TP [2, 9]: 3
No. plants alive ([2]; seedling soak, rate 25 μM): 13
No. plants dead ([2]; seedling soak, rate 25 μM): 51
No. plants with pollen & silks ([2]; seedling soak, rate 25 μM): 2
No. plants dead after TP [2, 10]: 1
No. plants alive ([2]; seedling soak, rate 125 μM): 2
No. plants dead ([2]; seedling soak, rate 125 μM): 62
No. plants dead after TP [2, 11]: 0
# plants dead after treatment ([7]; spray, rate 35 g ai/ha): 0
# plants w/ pollen and silk ([7]; spray, rate 35 g ai/ha): 5
% DR (doubling rate) ([7]; spray, rate 35 g ai/ha): 27.8%
# plants dead after treatment ([7]; spray, rate 140 g ai/ha): 0
# plants w/ pollen and silk ([7]; spray, rate 140 g ai/ha): 3
% DR (doubling rate) ([7]; spray, rate 140 g ai/ha): 16.7%

CC(C)OC(=O)Nc1cccc(Cl)c1 [Chlorpropham, chlorpropham]
% DR (doubling rate: No. plants with pollen and silk/No. of plants left * 100) ([2]; seedling soak, rate 5 μM): 45.5%
No. plants alive ([2]; seedling soak, rate 5 μM): 16
No. plants dead ([2]; seedling soak, rate 5 μM): 48
No. plants with pollen & silks ([2]; seedling soak, rate 5 μM): 5
No. plants dead after TP [2, 9]: 0
No. plants alive ([2]; seedling soak, rate 25 μM): 1
No. plants dead ([2]; seedling soak, rate 25 μM): 63
No. plants dead after TP [2, 10]: 0
No. plants alive ([2]; seedling soak, rate 125 μM): 0
No. plants dead ([2]; seedling soak, rate 125 μM): 64
No. plants dead after TP [2, 11]: 0
# plants dead after treatment ([7]; spray, rate 70 g ai/ha): 0
# plants w/ pollen and silk ([7]; spray, rate 70 g ai/ha): 9
% DR (doubling rate) ([7]; spray, rate 70 g ai/ha): 40.9%
# plants dead after treatment ([7]; spray, rate 280 g ai/ha): 1
# plants w/ pollen and silk ([7]; spray, rate 280 g ai/ha): 18
% DR (doubling rate) ([7]; spray, rate 280 g ai/ha): 58.1%
